Reference: the kinase profiling compilation of Christmann-Franck et al. (2016)

Experiments:
Assay in all cases: radiometric filter-binding kinase assay
[1] = target: PLK1 (human) (UniProt P53350)
[2] = target: NEK2 (human) (UniProt P51955)
[3] = target: AURKB (human) (UniProt Q96GD4)
[4] = target: MAPK11 (human) (UniProt Q15759)
[5] = target: CHEK2 (human) (UniProt O96017)
[6] = target: PRKACA (human) (UniProt P17612)
[7] = target: MKNK2 (human) (UniProt Q9HBH9)
[8] = target: MAPKAPK3 (human) (UniProt Q16644)
[9] = target: PAK6 (human) (UniProt Q9NQU5)
[10] = target: CHEK1 (human) (UniProt O14757)
[11] = target: EPHA2 (human) (UniProt P29317)
[12] = target: MAPK13 (human) (UniProt O15264)
[13] = target: MARK4 (human) (UniProt Q96L34)
[14] = target: MAPK12 (human) (UniProt P53778)
[15] = target: MAP3K9 (human) (UniProt P80192)
[16] = target: MAPKAPK2 (human) (UniProt P49137)
[17] = target: GCK (human) (UniProt Q12851)
[18] = target: MAPK14 (human) (UniProt Q16539)
[19] = target: DYRK2 (human) (UniProt Q92630)
[20] = target: CSK (human) (UniProt P41240)
[21] = target: MAPK3 (human) (UniProt P27361)
[22] = target: MST4 (human) (UniProt Q9P289)
[23] = target: PRKCA (human) (UniProt P17252)
[24] = test system: AKT2 (human), P31751 [S474D]
[25] = test system: ROCK2 (rat); conditions: accession and sequence are those of the human protein
[26] = target: MAP3K11 (human) (UniProt Q16584)
[27] = target: STK3 (human) (UniProt Q13188)
[28] = target: PRKAA1 PRKAB2 PRKAG1 (human) (UniProt O43741+Q13131+P54619)
[29] = target: SYK (human) (UniProt P43405)

Sequence of STK3 (human) (Q13188 whole entry, looked up): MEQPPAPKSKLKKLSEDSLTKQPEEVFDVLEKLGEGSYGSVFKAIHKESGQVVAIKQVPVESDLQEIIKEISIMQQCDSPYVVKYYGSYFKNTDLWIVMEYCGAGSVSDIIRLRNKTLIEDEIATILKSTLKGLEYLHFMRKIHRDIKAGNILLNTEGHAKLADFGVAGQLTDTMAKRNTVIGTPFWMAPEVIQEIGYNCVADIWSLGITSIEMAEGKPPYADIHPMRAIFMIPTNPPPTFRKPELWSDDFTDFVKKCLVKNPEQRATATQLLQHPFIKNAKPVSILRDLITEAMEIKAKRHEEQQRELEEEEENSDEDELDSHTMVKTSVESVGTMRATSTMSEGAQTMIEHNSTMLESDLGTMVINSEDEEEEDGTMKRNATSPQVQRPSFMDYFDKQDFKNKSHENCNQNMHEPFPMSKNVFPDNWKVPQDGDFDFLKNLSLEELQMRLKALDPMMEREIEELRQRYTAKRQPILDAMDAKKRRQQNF
Sequence of MAPK12 (human) (P53778 whole entry, looked up): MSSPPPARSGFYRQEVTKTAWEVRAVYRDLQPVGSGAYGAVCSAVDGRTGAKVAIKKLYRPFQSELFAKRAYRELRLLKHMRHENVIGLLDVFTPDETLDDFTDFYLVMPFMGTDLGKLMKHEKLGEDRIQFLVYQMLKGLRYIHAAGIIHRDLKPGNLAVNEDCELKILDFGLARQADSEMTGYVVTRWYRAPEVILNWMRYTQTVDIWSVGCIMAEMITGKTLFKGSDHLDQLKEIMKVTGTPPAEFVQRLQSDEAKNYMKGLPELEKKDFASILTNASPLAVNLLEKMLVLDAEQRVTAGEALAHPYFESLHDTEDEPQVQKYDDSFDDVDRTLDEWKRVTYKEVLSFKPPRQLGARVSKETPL
Sequence of AKT2 (human), P31751 [S474D] (P31751 whole entry S474D, looked up): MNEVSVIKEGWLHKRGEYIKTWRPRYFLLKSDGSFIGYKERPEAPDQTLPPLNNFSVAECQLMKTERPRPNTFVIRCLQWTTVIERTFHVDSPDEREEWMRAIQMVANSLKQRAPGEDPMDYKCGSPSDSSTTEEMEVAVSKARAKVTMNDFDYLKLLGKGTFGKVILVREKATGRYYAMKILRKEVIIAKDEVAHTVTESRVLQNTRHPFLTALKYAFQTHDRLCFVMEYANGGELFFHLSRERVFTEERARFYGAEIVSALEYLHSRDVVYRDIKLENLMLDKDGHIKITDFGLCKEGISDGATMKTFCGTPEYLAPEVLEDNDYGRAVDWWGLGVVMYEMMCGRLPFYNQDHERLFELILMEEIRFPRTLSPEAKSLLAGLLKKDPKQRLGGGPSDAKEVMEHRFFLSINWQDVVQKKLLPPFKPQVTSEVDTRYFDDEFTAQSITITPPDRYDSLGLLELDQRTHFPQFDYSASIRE
Sequence of AURKB (human) (Q96GD4 whole entry, looked up): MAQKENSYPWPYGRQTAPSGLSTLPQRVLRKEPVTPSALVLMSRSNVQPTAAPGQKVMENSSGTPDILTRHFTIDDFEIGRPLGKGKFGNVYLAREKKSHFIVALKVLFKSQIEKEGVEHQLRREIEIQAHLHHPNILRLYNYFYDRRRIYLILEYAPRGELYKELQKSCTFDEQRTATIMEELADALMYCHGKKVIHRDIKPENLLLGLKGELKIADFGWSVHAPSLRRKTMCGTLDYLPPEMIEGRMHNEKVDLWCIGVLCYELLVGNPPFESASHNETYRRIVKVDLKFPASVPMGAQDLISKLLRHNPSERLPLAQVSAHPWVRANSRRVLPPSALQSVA
Sequence of MAPKAPK2 (human) (P49137 whole entry, looked up): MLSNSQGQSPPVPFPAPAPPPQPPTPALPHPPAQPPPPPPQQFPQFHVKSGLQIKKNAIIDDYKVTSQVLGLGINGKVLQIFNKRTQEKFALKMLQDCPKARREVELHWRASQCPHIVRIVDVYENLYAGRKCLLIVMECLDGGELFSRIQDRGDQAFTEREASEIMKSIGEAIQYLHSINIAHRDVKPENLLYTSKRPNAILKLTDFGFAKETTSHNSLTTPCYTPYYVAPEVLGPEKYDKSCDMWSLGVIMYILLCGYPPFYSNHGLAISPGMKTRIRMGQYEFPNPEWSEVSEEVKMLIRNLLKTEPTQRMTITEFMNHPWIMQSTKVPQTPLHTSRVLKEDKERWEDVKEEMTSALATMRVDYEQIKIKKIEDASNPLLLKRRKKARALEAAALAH
Sequence of MAPKAPK3 (human) (Q16644 whole entry, looked up): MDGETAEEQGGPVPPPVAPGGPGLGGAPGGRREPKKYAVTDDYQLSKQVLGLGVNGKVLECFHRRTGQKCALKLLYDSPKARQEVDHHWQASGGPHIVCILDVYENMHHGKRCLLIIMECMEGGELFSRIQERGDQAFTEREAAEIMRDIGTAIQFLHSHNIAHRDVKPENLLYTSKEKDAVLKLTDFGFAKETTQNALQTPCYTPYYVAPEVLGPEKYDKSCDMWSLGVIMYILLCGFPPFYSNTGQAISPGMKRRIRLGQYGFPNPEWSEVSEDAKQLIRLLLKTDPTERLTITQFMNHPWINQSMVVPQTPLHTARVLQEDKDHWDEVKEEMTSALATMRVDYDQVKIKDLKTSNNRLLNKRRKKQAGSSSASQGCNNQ
Sequence of MST4 (human) (Q9P289 whole entry, looked up): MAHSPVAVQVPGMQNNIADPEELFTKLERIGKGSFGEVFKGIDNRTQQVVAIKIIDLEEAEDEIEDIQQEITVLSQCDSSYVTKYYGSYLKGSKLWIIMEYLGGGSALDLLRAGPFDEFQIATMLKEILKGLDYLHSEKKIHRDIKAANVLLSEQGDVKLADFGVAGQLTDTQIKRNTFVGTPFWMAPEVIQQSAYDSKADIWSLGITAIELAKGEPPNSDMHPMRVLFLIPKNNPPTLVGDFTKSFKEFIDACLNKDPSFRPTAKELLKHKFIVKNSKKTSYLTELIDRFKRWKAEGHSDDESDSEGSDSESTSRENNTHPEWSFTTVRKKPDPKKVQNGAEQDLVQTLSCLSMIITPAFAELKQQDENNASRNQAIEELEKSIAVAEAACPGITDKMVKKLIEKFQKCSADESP
Sequence of NEK2 (human) (P51955 whole entry, looked up): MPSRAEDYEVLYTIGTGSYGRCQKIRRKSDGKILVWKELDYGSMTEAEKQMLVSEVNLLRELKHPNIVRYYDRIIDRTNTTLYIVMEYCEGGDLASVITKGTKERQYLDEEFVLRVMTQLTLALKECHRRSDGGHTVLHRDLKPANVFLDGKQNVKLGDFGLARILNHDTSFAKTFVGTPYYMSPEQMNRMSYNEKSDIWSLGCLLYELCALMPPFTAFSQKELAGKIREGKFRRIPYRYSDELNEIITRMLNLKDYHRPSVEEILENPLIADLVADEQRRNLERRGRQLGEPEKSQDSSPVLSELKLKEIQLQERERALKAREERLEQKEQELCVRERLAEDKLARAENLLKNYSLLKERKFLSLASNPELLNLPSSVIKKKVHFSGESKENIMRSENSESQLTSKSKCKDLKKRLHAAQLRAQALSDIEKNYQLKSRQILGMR
Sequence of DYRK2 (human) (Q92630 whole entry, looked up): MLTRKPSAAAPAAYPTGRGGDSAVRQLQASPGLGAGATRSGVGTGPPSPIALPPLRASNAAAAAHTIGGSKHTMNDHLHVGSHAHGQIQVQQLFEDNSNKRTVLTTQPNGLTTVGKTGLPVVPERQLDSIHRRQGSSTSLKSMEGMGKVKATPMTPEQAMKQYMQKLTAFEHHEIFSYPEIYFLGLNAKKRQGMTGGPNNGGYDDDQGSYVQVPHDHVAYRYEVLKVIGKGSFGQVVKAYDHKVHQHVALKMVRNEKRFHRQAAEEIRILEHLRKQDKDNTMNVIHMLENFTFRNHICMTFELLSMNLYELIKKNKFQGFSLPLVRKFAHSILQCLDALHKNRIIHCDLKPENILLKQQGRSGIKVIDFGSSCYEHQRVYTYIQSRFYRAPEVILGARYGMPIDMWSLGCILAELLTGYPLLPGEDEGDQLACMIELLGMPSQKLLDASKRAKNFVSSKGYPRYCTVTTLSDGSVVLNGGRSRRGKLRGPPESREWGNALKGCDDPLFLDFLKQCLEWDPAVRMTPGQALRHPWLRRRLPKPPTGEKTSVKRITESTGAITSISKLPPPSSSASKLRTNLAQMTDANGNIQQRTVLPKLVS
Sequence of MAPK14 (human) (Q16539 whole entry, looked up): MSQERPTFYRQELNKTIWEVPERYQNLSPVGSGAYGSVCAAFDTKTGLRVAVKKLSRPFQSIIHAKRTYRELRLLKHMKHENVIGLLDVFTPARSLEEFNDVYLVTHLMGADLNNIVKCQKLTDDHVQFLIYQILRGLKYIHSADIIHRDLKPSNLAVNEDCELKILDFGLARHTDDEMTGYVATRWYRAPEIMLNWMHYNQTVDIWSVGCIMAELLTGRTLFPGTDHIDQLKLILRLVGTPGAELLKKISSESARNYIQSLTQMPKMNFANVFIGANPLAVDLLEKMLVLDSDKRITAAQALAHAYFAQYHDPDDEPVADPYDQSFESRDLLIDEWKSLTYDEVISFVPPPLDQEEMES

- residual activity ([1]; compound 0.01 µM): 95%
- residual activity ([1]; compound 0.1 µM): 113%
- residual activity ([2]; compound 0.01 µM): 118%
- residual activity ([2]; compound 0.1 µM): 118%
- residual activity ([2]; compound 1.0 µM): 106%
- residual activity ([3]; compound 0.01 µM): 105%
- residual activity ([3]; compound 0.1 µM): 106%
- residual activity ([3]; compound 1.0 µM): 83%
- residual activity ([4]; compound 0.01 µM): 113%
- residual activity ([4]; compound 0.1 µM): 129%
- residual activity ([4]; compound 1.0 µM): 109%
- residual activity ([5]; compound 0.01 µM): 129%
- residual activity ([5]; compound 0.1 µM): 121%
- residual activity ([6]; compound 0.01 µM): 103%
- residual activity ([6]; compound 0.1 µM): 111%
- residual activity ([6]; compound 1.0 µM): 98%
- residual activity ([7]; compound 0.01 µM): 91%
- residual activity ([7]; compound 0.1 µM): 100%
- residual activity ([7]; compound 1.0 µM): 106%
- residual activity ([8]; compound 0.01 µM): 112%
- residual activity ([8]; compound 0.1 µM): 112%
- residual activity ([8]; compound 1.0 µM): 100%
- residual activity ([9]; compound 0.01 µM): 108%
- residual activity ([9]; compound 0.1 µM): 120%
- residual activity ([9]; compound 1.0 µM): 124%
- residual activity ([10]; compound 0.01 µM): 111%
- residual activity ([10]; compound 0.1 µM): 106%
- residual activity ([10]; compound 1.0 µM): 104%
- residual activity ([11]; compound 0.01 µM): 110%
- residual activity ([11]; compound 0.1 µM): 118%
- residual activity ([11]; compound 1.0 µM): 114%
- residual activity ([12]; compound 0.01 µM): 106%
- residual activity ([12]; compound 0.1 µM): 113%
- residual activity ([12]; compound 1.0 µM): 108%
- residual activity ([13]; compound 0.01 µM): 106%
- residual activity ([13]; compound 0.1 µM): 114%
- residual activity ([13]; compound 1.0 µM): 102%
- residual activity ([14]; compound 0.01 µM): 109%
- residual activity ([14]; compound 0.1 µM): 110%
- residual activity ([14]; compound 1.0 µM): 106%
- residual activity ([15]; compound 0.01 µM): 110%
- residual activity ([15]; compound 0.1 µM): 111%
- residual activity ([15]; compound 1.0 µM): 107%
- residual activity ([16]; compound 0.01 µM): 104%
- residual activity ([16]; compound 0.1 µM): 111%
- residual activity ([16]; compound 1.0 µM): 101%
- residual activity ([17]; compound 0.01 µM): 109%
- residual activity ([17]; compound 0.1 µM): 116%
- residual activity ([17]; compound 1.0 µM): 101%
- residual activity ([18]; compound 0.01 µM): 105%
- residual activity ([18]; compound 0.1 µM): 109%
- residual activity ([18]; compound 1.0 µM): 103%
- residual activity ([19]; compound 0.01 µM): 100%
- residual activity ([19]; compound 0.1 µM): 108%
- residual activity ([19]; compound 1.0 µM): 102%
- residual activity ([20]; compound 0.01 µM): 103%
- residual activity ([20]; compound 0.1 µM): 104%
- residual activity ([20]; compound 1.0 µM): 100%
- residual activity ([21]; compound 0.01 µM): 93%
- residual activity ([21]; compound 0.1 µM): 106%
- residual activity ([21]; compound 1.0 µM): 94%
- residual activity ([22]; compound 0.01 µM): 112%
- residual activity ([22]; compound 0.1 µM): 108%
- residual activity ([22]; compound 1.0 µM): 119%
- residual activity ([23]; compound 0.01 µM): 104%
- residual activity ([23]; compound 0.1 µM): 105%
- residual activity ([23]; compound 1.0 µM): 94%
- residual activity ([24]; compound 0.01 µM): 125%
- residual activity ([24]; compound 0.1 µM): 118%
- residual activity ([24]; compound 1.0 µM): 100%
- residual activity ([25]; compound 0.01 µM): 96%
- residual activity ([25]; compound 0.1 µM): 92%
- residual activity ([25]; compound 1.0 µM): 70%
- residual activity ([26]; compound 0.01 µM): 100%
- residual activity ([26]; compound 0.1 µM): 110%
- residual activity ([26]; compound 1.0 µM): 87%
- residual activity ([27]; compound 0.01 µM): 116%
- residual activity ([27]; compound 0.1 µM): 128%
- residual activity ([27]; compound 1.0 µM): 112%
- residual activity ([28]; compound 0.01 µM): 107%
- residual activity ([28]; compound 0.1 µM): 111%
- residual activity ([28]; compound 1.0 µM): 87%
- residual activity ([29]; compound 0.01 µM): 109%
- residual activity ([29]; compound 0.1 µM): 105%
- residual activity ([29]; compound 1.0 µM): 103%
Structure (SMILES): CNc1nc(-c2ccc3c(N)n[nH]c3c2)cc(N2C[C@@H](C(=O)NC3CCCCC3)CC[C@H]2C)n1
